Experimental findings from the supplement of paper PMC10307832 are described below.

Assay in all cases: relative viability (nuclei count vs DMSO), 5 days (fraction); higher = more cells survive
Compound in experiment [1]: COc1cc2ncn(-c3cc(OCc4ccccc4C(F)(F)F)c(C(N)=O)s3)c2cc1OC + COc1cc2c(Oc3ccc(NC(=O)C4(C(=O)Nc5ccc(F)cc5)CC4)cc3F)ccnc2cc1OCCCN1CCOCC1 [Foretinib] (partner 0.25 µM)
Summed up: (§1)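 Relative viability equals treated-well nuclei counts divided by vehicle-well nuclei counts. Counts came from 4× images of lung cancer cell lines grown in 1536-well plates for 5 days after pin-tool dosing on the day after seeding. Dosing used one drug alone or a fixed anchor-drug dose plus five library-drug doses (not always all listed) in √10 steps, and values are medians of duplicate plates.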

Compound in experiment [2]: COc1cc2ncn(-c3cc(OCc4ccccc4C(F)(F)F)c(C(N)=O)s3)c2cc1OC + Cc1nc(NC(=O)N2CCC[C@H]2C(N)=O)sc1-c1ccnc(C(C)(C)C(F)(F)F)c1 [Alpelisib] (partner 2 µM)
Summed up:
as §1

Compound in experiment [3]: COc1cc2ncn(-c3cc(OCc4ccccc4C(F)(F)F)c(C(N)=O)s3)c2cc1OC + Nc1nc2[nH]cc(CCc3ccc(C(=O)N[C@@H](CCC(=O)O)C(=O)O)cc3)c2c(=O)[nH]1 [Pemetrexed] (partner 0.2 µM)
Summed up:
as §1

Compound in experiment [4]: COc1cc2ncn(-c3cc(OCc4ccccc4C(F)(F)F)c(C(N)=O)s3)c2cc1OC + O=C(c1cc(Cc2n[nH]c(=O)c3ccccc23)ccc1F)N1CCN(C(=O)C2CC2)CC1 [Olaparib] (partner 8 µM)
Summed up:
as §1

NCI-H596: the relative viability in experiment [1] (first compound 0.05 µM) is 1.03; in experiment [1] (first compound 0.1581 µM) it was 0.908; in experiment [1] (first compound 0.5 µM) it was 0.481; in experiment [1] (first compound 1.581 µM), 0.307; in experiment [1] (first compound 5 µM) it was 0.242; in experiment [2] (first compound 0.05 µM), 0.496. Besides, the relative viability in experiment [2] (first compound 0.1581 µM) stood at 0.514; in experiment [2] (first compound 0.5 µM), 0.35; in experiment [2] (first compound 1.581 µM), 0.29; in experiment [2] (first compound 5 µM), 0.23; in experiment [3] (first compound 0.05 µM), 0.559; in experiment [3] (first compound 0.1581 µM), 0.463. The relative viability in experiment [3] (first compound 0.5 µM) came out at 0.454; in experiment [3] (first compound 1.581 µM), 0.359; in experiment [3] (first compound 5 µM) it was 0.337; in experiment [4] (first compound 0.05 µM) it was 0.542; in experiment [4] (first compound 0.1581 µM) it was 0.692; in experiment [4] (first compound 0.5 µM), 0.765. The relative viability was 0.413 in experiment [4] (first compound 1.581 µM) and 0.306 in experiment [4] (first compound 5 µM).
Take A-427: the relative viability in experiment [1] (first compound 0.05 µM) is 1.13; in experiment [1] (first compound 0.1581 µM), 0.923; in experiment [1] (first compound 0.5 µM), 0.81; in experiment [1] (first compound 1.581 µM) it was 0.398; in experiment [1] (first compound 5 µM), 0.137; in experiment [2] (first compound 0.05 µM), 1.01. The relative viability in experiment [2] (first compound 0.1581 µM) was 1.13; in experiment [2] (first compound 0.5 µM), 1; in experiment [2] (first compound 1.581 µM), 0.486; in experiment [2] (first compound 5 µM) it was 0.161; in experiment [3] (first compound 0.05 µM), 1.05; in experiment [3] (first compound 0.1581 µM) it was 1.02. Besides, the relative viability is 0.887 in experiment [3] (first compound 0.5 µM); 0.257 in experiment [3] (first compound 1.581 µM); 0.203 in experiment [3] (first compound 5 µM); 0.745 in experiment [4] (first compound 0.05 µM); 0.802 in experiment [4] (first compound 0.1581 µM); 0.54 in experiment [4] (first compound 0.5 µM). For the same cell line, the relative viability in experiment [4] (first compound 1.581 µM) worked out at 0.267; in experiment [4] (first compound 5 µM), 0.169.
Consider LCLC-97TM1, for which the relative viability was 0.914 in experiment [1] (first compound 0.05 µM); 0.896 in experiment [1] (first compound 0.1581 µM); 0.646 in experiment [1] (first compound 0.5 µM); 0.184 in experiment [1] (first compound 1.581 µM); 0.147 in experiment [1] (first compound 5 µM); 0.244 in experiment [2] (first compound 0.05 µM). The relative viability in experiment [2] (first compound 0.1581 µM) came to 0.238; in experiment [2] (first compound 0.5 µM), 0.144; in experiment [2] (first compound 1.581 µM), 0.139; in experiment [2] (first compound 5 µM) it was 0.127; in experiment [3] (first compound 0.05 µM), 0.215; in experiment [3] (first compound 0.1581 µM), 0.217. The relative viability was determined as 0.147 in experiment [3] (first compound 0.5 µM); 0.11 in experiment [3] (first compound 1.581 µM); 0.0881 in experiment [3] (first compound 5 µM); 0.201 in experiment [4] (first compound 0.05 µM); 0.222 in experiment [4] (first compound 0.1581 µM); 0.189 in experiment [4] (first compound 0.5 µM). For the same cell line, the relative viability in experiment [4] (first compound 1.581 µM) amounted to 0.0731; in experiment [4] (first compound 5 µM) it was 0.0698.
Consider HCC-15, for which the relative viability in experiment [1] (first compound 0.05 µM) is 0.98; in experiment [1] (first compound 0.1581 µM) it was 0.919; in experiment [1] (first compound 0.5 µM), 0.334; in experiment [1] (first compound 1.581 µM) it was 0.16; in experiment [1] (first compound 5 µM) it was 0.124; in experiment [2] (first compound 0.05 µM) it was 0.93. In addition, the relative viability came to 0.749 in experiment [2] (first compound 0.1581 µM); 0.283 in experiment [2] (first compound 0.5 µM); 0.142 in experiment [2] (first compound 1.581 µM); 0.1 in experiment [2] (first compound 5 µM); 0.23 in experiment [3] (first compound 0.05 µM); 0.215 in experiment [3] (first compound 0.1581 µM). Besides, the relative viability in experiment [3] (first compound 0.5 µM) is 0.174; in experiment [3] (first compound 1.581 µM) it was 0.156; in experiment [3] (first compound 5 µM), 0.13; in experiment [4] (first compound 0.05 µM), 0.566; in experiment [4] (first compound 0.1581 µM), 0.446; in experiment [4] (first compound 0.5 µM) it was 0.232. The relative viability in experiment [4] (first compound 1.581 µM) is 0.131; in experiment [4] (first compound 5 µM) it was 0.14.
With NCI-H650, the relative viability in experiment [1] (first compound 0.05 µM) is 0.995; in experiment [1] (first compound 0.1581 µM) it was 1.08; in experiment [1] (first compound 0.5 µM) it was 0.779; in experiment [1] (first compound 1.581 µM), 0.348; in experiment [1] (first compound 5 µM), 0.637; in experiment [2] (first compound 0.05 µM) it was 1.11. Also, the relative viability in experiment [2] (first compound 0.1581 µM) amounted to 1.1; in experiment [2] (first compound 0.5 µM) it was 0.698; in experiment [2] (first compound 1.581 µM) it was 0.185; in experiment [2] (first compound 5 µM), 0.29; in experiment [3] (first compound 0.05 µM) it was 1.01; in experiment [3] (first compound 0.1581 µM), 0.923. Moreover, the relative viability was 0.768 in experiment [3] (first compound 0.5 µM); 0.261 in experiment [3] (first compound 1.581 µM); 0.458 in experiment [3] (first compound 5 µM); 0.367 in experiment [4] (first compound 0.05 µM); 0.41 in experiment [4] (first compound 0.1581 µM); 0.26 in experiment [4] (first compound 0.5 µM). For the same cell line, the relative viability worked out at 0.15 in experiment [4] (first compound 1.581 µM) and 0.272 in experiment [4] (first compound 5 µM).
With UMC-11, the relative viability in experiment [1] (first compound 0.05 µM) is 0.893; in experiment [1] (first compound 0.1581 µM), 0.836; in experiment [1] (first compound 0.5 µM) it was 0.156; in experiment [1] (first compound 1.581 µM), 0.18; in experiment [1] (first compound 5 µM), 0.145; in experiment [2] (first compound 0.05 µM), 0.872. For the same cell line, the relative viability turned out to be 0.928 in experiment [2] (first compound 0.1581 µM); 0.128 in experiment [2] (first compound 0.5 µM); 0.106 in experiment [2] (first compound 1.581 µM); 0.101 in experiment [2] (first compound 5 µM); 0.619 in experiment [3] (first compound 0.05 µM); 0.599 in experiment [3] (first compound 0.1581 µM). Further, the relative viability in experiment [3] (first compound 0.5 µM) is 0.201; in experiment [3] (first compound 1.581 µM), 0.191; in experiment [3] (first compound 5 µM), 0.201; in experiment [4] (first compound 0.05 µM), 0.313; in experiment [4] (first compound 0.1581 µM), 0.293; in experiment [4] (first compound 0.5 µM) it was 0.21. Further, the relative viability in experiment [4] (first compound 1.581 µM) came out at 0.185; in experiment [4] (first compound 5 µM) it was 0.159.
Take NCI-H1651: the relative viability amounted to 0.832 in experiment [1] (first compound 0.05 µM); 0.893 in experiment [1] (first compound 0.1581 µM); 0.655 in experiment [1] (first compound 0.5 µM); 0.118 in experiment [1] (first compound 1.581 µM); 0.102 in experiment [1] (first compound 5 µM); 0.98 in experiment [2] (first compound 0.05 µM). In addition, the relative viability stood at 0.95 in experiment [2] (first compound 0.1581 µM); 0.777 in experiment [2] (first compound 0.5 µM); 0.111 in experiment [2] (first compound 1.581 µM); 0.0858 in experiment [2] (first compound 5 µM); 0.636 in experiment [3] (first compound 0.05 µM); 0.578 in experiment [3] (first compound 0.1581 µM). For the same cell line, the relative viability in experiment [3] (first compound 0.5 µM) amounted to 0.468; in experiment [3] (first compound 1.581 µM), 0.402; in experiment [3] (first compound 5 µM) it was 0.326; in experiment [4] (first compound 0.05 µM), 0.18; in experiment [4] (first compound 0.1581 µM), 0.157; in experiment [4] (first compound 0.5 µM) it was 0.15. Besides, the relative viability was 0.14 in experiment [4] (first compound 1.581 µM) and 0.153 in experiment [4] (first compound 5 µM).
